{
  "source": "paper PMC5218480",
  "about": "(PLoS ONE, 2017)",
  "system": "MV-4-11 cells",
  "assay": "Gene expression microarray analysis (Affymetrix PrimeView) and GSEA",
  "format": "cell-based, human",
  "parameters": "RFU PODN (11730768_x_at) / Fold change /veh PODN (11730768_x_at) / RFU LINC00158 (11744669_a_at) / Fold change /veh LINC00158 (11744669_a_at) / RFU DUSP10 (11751237_a_at) / Fold change /veh DUSP10 (11751237_a_at) / RFU ID3 (11757404_x_at) / Fold change /veh ID3 (11757404_x_at) / RFU PLEKHG5 (11737974_s_at) / Fold change /veh PLEKHG5 (11737974_s_at) / RFU LRRC4B (11730491_at) / Fold change /veh LRRC4B (11730491_at) / RFU GIMAP4 (11747438_a_at) / Fold change /veh GIMAP4 (11747438_a_at) / RFU KRT8 (11758183_x_at) / Fold change /veh KRT8 (11758183_x_at) / RFU CNN1 (11734310_a_at) / Fold change /veh CNN1 (11734310_a_at) / RFU VPS37D (11726825_at) / Fold change /veh VPS37D (11726825_at) / RFU C10orf10 (11716522_x_at) / Fold change /veh C10orf10 (11716522_x_at) / RFU KIR2DL2 /// KIR2DL4 /// KIR2DL5A /// KIR2DL5B /// KIR2DS1 /// KIR2DS2 /// KIR2DS3 /// KIR2DS4 /// KIR3DL3 /// KIR3DL3 /// KIR3DS1 (11738374_at) / Fold change /veh KIR2DL2 /// KIR2DL4 /// KIR2DL5A /// KIR2DL5B /// KIR2DS1 /// KIR2DS2 /// KIR2DS3 /// KIR2DS4 /// KIR3DL3 /// KIR3DL3 /// KIR3DS1 (11738374_at) / RFU C1QL1 (11718748_at) / Fold change /veh C1QL1 (11718748_at) / RFU TMPRSS4 (11747572_a_at) / Fold change /veh TMPRSS4 (11747572_a_at) / RFU HAMP (11756126_x_at) / Fold change /veh HAMP (11756126_x_at) / RFU RNFT2 (11725882_a_at) / Fold change /veh RNFT2 (11725882_a_at) / RFU NR4A2 (11747474_a_at) / Fold change /veh NR4A2 (11747474_a_at) / RFU ABCC12 (11746883_a_at) / Fold change /veh ABCC12 (11746883_a_at) / RFU TMEM136 (11760407_x_at) / Fold change /veh TMEM136 (11760407_x_at) / RFU CLDN22 /// WWC2 (11732394_at) / Fold change /veh CLDN22 /// WWC2 (11732394_at) / RFU HLA-DPB1 (11760878_x_at) / Fold change /veh HLA-DPB1 (11760878_x_at) / RFU SPINT1 (11716480_a_at) / Fold change /veh SPINT1 (11716480_a_at) / RFU GAP43 (11754022_s_at) / Fold change /veh GAP43 (11754022_s_at) / RFU A4GNT (11735810_at) / Fold change /veh A4GNT (11735810_at) / RFU PRB3 (11715151_x_at) / Fold change /veh PRB3 (11715151_x_at) / RFU TUBB4B (11761932_at) / Fold change /veh TUBB4B (11761932_at) / RFU CAPN14 (11732068_a_at) / Fold change /veh CAPN14 (11732068_a_at) / RFU TMCC2 (11721928_a_at) / Fold change /veh TMCC2 (11721928_a_at) / RFU IRGQ (11745062_a_at) / Fold change /veh IRGQ (11745062_a_at) / RFU FAM174B (11720279_a_at) / Fold change /veh FAM174B (11720279_a_at) / RFU TMPRSS4 (11748680_a_at) / Fold change /veh TMPRSS4 (11748680_a_at) / RFU FAM212B (11763350_a_at) / Fold change /veh FAM212B (11763350_a_at) / RFU PLEKHG5 (11743358_a_at) / Fold change /veh PLEKHG5 (11743358_a_at) / RFU ZSCAN30 (11745921_a_at) / Fold change /veh ZSCAN30 (11745921_a_at) / RFU CMKLR1 (11741424_a_at) / Fold change /veh CMKLR1 (11741424_a_at) / RFU LOC101060620 /// MAPK8IP1 (11723275_at) / Fold change /veh LOC101060620 /// MAPK8IP1 (11723275_at) / RFU SPTSSB (11747773_x_at) / Fold change /veh SPTSSB (11747773_x_at) / RFU PRSS12 (11739890_at) / Fold change /veh PRSS12 (11739890_at) / RFU BIN1 (11741810_x_at) / Fold change /veh BIN1 (11741810_x_at) / RFU WNT11 (11732464_a_at) / Fold change /veh WNT11 (11732464_a_at) / RFU C10orf10 (11716521_a_at) / Fold change /veh C10orf10 (11716521_a_at) / RFU C5orf56 (11738089_at) / Fold change /veh C5orf56 (11738089_at) / RFU CYB561 (11721691_x_at) / Fold change /veh CYB561 (11721691_x_at) / RFU ANKRD19P (11752326_a_at) / Fold change /veh ANKRD19P (11752326_a_at) / RFU OR2T12 /// OR2T33 /// OR2T8 (11738714_s_at) / Fold change /veh OR2T12 /// OR2T33 /// OR2T8 (11738714_s_at) / RFU VCAN (11748164_a_at) / Fold change /veh VCAN (11748164_a_at) / RFU JSRP1 (11732532_at) / Fold change /veh JSRP1 (11732532_at) / RFU KRTAP10-11 (11738290_x_at) / Fold change /veh KRTAP10-11 (11738290_x_at) / RFU MYO3A (11730013_a_at) / Fold change /veh MYO3A (11730013_a_at) / RFU EBF3 (11725865_a_at) / Fold change /veh EBF3 (11725865_a_at) / RFU CAMK2N1 (11719241_x_at) / Fold change /veh CAMK2N1 (11719241_x_at) / RFU C5orf56 (11738088_a_at) / Fold change /veh C5orf56 (11738088_a_at) / RFU OLFML3 (11715873_a_at) / Fold change /veh OLFML3 (11715873_a_at) / RFU LOC100653217 /// NTM (11731650_a_at) / Fold change /veh LOC100653217 /// NTM (11731650_a_at) / RFU MAPK11 (11762145_a_at) / Fold change /veh MAPK11 (11762145_a_at) / RFU FIZ1 (11724087_x_at) / Fold change /veh FIZ1 (11724087_x_at) / RFU OASL (11726364_x_at) / Fold change /veh OASL (11726364_x_at) / RFU SOX15 (11748057_x_at) / Fold change /veh SOX15 (11748057_x_at) / RFU CD79A (11719716_a_at) / Fold change /veh CD79A (11719716_a_at) / RFU HIST1H1D (11736915_at) / Fold change /veh HIST1H1D (11736915_at) / RFU CASKIN2 (11723855_a_at) / Fold change /veh CASKIN2 (11723855_a_at) / RFU LOC730098 (11760151_x_at) / Fold change /veh LOC730098 (11760151_x_at) / RFU OR4N2 (11742367_at) / Fold change /veh OR4N2 (11742367_at) / RFU PRRT2 (11749266_a_at) / Fold change /veh PRRT2 (11749266_a_at) / RFU SNX32 (11753110_a_at) / Fold change /veh SNX32 (11753110_a_at) / RFU CDHR5 (11726645_a_at) / Fold change /veh CDHR5 (11726645_a_at) / RFU RCAN1 (11760418_a_at) / Fold change /veh RCAN1 (11760418_a_at) / RFU FAM167A (11723789_a_at) / Fold change /veh FAM167A (11723789_a_at) / RFU FAM26E (11764081_at) / Fold change /veh FAM26E (11764081_at) / RFU ISYNA1 (11749810_s_at) / Fold change /veh ISYNA1 (11749810_s_at) / RFU ACY1 (11761880_at) / Fold change /veh ACY1 (11761880_at) / RFU 11764098_at / Fold change /veh 11764098_at / RFU SAMD14 (11745864_x_at) / Fold change /veh SAMD14 (11745864_x_at) / RFU NPB (11741838_a_at) / Fold change /veh NPB (11741838_a_at) / RFU TMPRSS6 (11731388_a_at) / Fold change /veh TMPRSS6 (11731388_a_at) / RFU KRTAP10-2 (11738614_at) / Fold change /veh KRTAP10-2 (11738614_at) / RFU ARHGAP8 /// PRR5-ARHGAP8 (11727945_x_at) / Fold change /veh ARHGAP8 /// PRR5-ARHGAP8 (11727945_x_at) / RFU KRTAP5-7 /// NADSYN1 (11734609_at) / Fold change /veh KRTAP5-7 /// NADSYN1 (11734609_at) / RFU RASL12 (11751679_a_at) / Fold change /veh RASL12 (11751679_a_at) / RFU CDKN2B (11736163_a_at) / Fold change /veh CDKN2B (11736163_a_at) / RFU PRF1 (11729649_at) / Fold change /veh PRF1 (11729649_at) / RFU, ZNF638 /// ZNF638-IT1 / Fold change vs veh, ZNF638 /// ZNF638-IT1 / RFU, PANK3 / Fold change vs veh, PANK3 / RFU, SH3YL1 / Fold change vs veh, SH3YL1 / RFU, ZEB2 / Fold change vs veh, ZEB2 / RFU, NRIP1 / Fold change vs veh, NRIP1 / RFU, PTTG1IP / Fold change vs veh, PTTG1IP / RFU, CAPN2 / Fold change vs veh, CAPN2 / RFU, MED14 / Fold change vs veh, MED14 / RFU, SNORA58 / Fold change vs veh, SNORA58 / RFU, C1orf63 / Fold change vs veh, C1orf63 / RFU, LRRFIP1 / Fold change vs veh, LRRFIP1 / RFU, NDUFAF7 / Fold change vs veh, NDUFAF7 / RFU, SLC12A2 / Fold change vs veh, SLC12A2 / RFU, IBTK / Fold change vs veh, IBTK / RFU, ESF1 / Fold change vs veh, ESF1 / Fold change vs veh, TMEM50B / RFU, TAOK1 / Fold change vs veh, TAOK1 / RFU, ACBD3 / Fold change vs veh, ACBD3 / RFU, TMA16 / Fold change vs veh, TMA16 / RFU, RWDD3 / Fold change vs veh, RWDD3 / RFU, BCAT1 / Fold change vs veh, BCAT1 / RFU, EDEM3 / Fold change vs veh, EDEM3 / RFU, TMEM33 / Fold change vs veh, TMEM33 / RFU, WDR75 / Fold change vs veh, WDR75 / RFU, AHCTF1 / Fold change vs veh, AHCTF1 / RFU, TFRC / Fold change vs veh, TFRC / RFU, ZDHHC17 / Fold change vs veh, ZDHHC17 / RFU, NOM1 / Fold change vs veh, NOM1 / RFU, ARL8B / Fold change vs veh, ARL8B / RFU, ZBTB11 / Fold change vs veh, ZBTB11 / RFU, TAMM41 / Fold change vs veh, TAMM41 / RFU, KIAA1704 /// LOC100996395 / Fold change vs veh, KIAA1704 /// LOC100996395 / RFU, ING1 / Fold change vs veh, ING1 / RFU, TRMT61B / Fold change vs veh, TRMT61B / RFU, FUBP3 / Fold change vs veh, FUBP3 / RFU, TP53 / Fold change vs veh, TP53 / RFU, TNKS2 / Fold change vs veh, TNKS2 / RFU, ZFP14 / Fold change vs veh, ZFP14 / RFU, ACTR2 / Fold change vs veh, ACTR2 / RFU, PPP3R1 / Fold change vs veh, PPP3R1 / RFU, PIK3R1 / Fold change vs veh, PIK3R1 / RFU, HNRNPA1 / Fold change vs veh, HNRNPA1 / RFU, RNF170 / Fold change vs veh, RNF170 / RFU, ZNF28 / Fold change vs veh, ZNF28 / RFU, RNGTT / Fold change vs veh, RNGTT / RFU, OGT / Fold change vs veh, OGT / RFU, BRD1 / Fold change vs veh, BRD1 / RFU, MARS / Fold change vs veh, MARS / RFU, ZNF655 / Fold change vs veh, ZNF655 / RFU, FAHD1 / Fold change vs veh, FAHD1 / RFU, BDP1 / Fold change vs veh, BDP1 / RFU, LRRCC1 / Fold change vs veh, LRRCC1 / RFU, ARID1A / Fold change vs veh, ARID1A / RFU, ZNF146 / Fold change vs veh, ZNF146 / RFU, ZNF330 / Fold change vs veh, ZNF330 / RFU, GPN3 / Fold change vs veh, GPN3 / RFU, C9orf123 / Fold change vs veh, C9orf123 / RFU, N4BP2L2 / Fold change vs veh, N4BP2L2 / RFU, ARFIP1 / Fold change vs veh, ARFIP1 / RFU, FAM179B / Fold change vs veh, FAM179B / RFU, BCL10 / Fold change vs veh, BCL10 / RFU, UHRF1BP1L / Fold change vs veh, UHRF1BP1L / RFU, BET1 / Fold change vs veh, BET1 / RFU, CNOT2 / Fold change vs veh, CNOT2 / RFU, ZNF268 / Fold change vs veh, ZNF268 / Fold change vs veh, ZNF507 / RFU, DGCR2 / Fold change vs veh, DGCR2 / RFU, WDSUB1 / Fold change vs veh, WDSUB1 / Fold change vs veh, HSP90B1 /// MIR3652 / RFU, ADSS / Fold change vs veh, ADSS / RFU, GK / Fold change vs veh, GK / RFU, ZNF148 / Fold change vs veh, ZNF148 / RFU, TAF9 / Fold change vs veh, TAF9 / RFU, SLC1A5 / Fold change vs veh, SLC1A5 / RFU, SLMO2 / Fold change vs veh, SLMO2 / RFU, ABCC4 / Fold change vs veh, ABCC4 / RFU, LOC101060439 /// RAP1B / Fold change vs veh, LOC101060439 /// RAP1B / RFU, RFX7 / Fold change vs veh, RFX7 / RFU, GTPBP10 / Fold change vs veh, GTPBP10 / RFU, CNEP1R1 / Fold change vs veh, CNEP1R1 / RFU, BIVM-ERCC5 /// ERCC5 / Fold change vs veh, BIVM-ERCC5 /// ERCC5 / RFU, ILF3 / Fold change vs veh, ILF3 / RFU 11762660_at / Fold change /veh 11762660_at / RFU VCAN (11757783_s_at) / Fold change /veh VCAN (11757783_s_at) / RFU DDX43 (11728927_at) / Fold change /veh DDX43 (11728927_at) / RFU KRT8 (11758188_x_at) / Fold change /veh KRT8 (11758188_x_at) / RFU NKD1 (11759106_at) / Fold change /veh NKD1 (11759106_at) / RFU SRD5A1 (11742802_a_at) / Fold change /veh SRD5A1 (11742802_a_at) / RFU TPSAB1 /// TPSB2 (11721975_s_at) / Fold change /veh TPSAB1 /// TPSB2 (11721975_s_at) / RFU GSTM3 (11746129_a_at) / Fold change /veh GSTM3 (11746129_a_at) / RFU IL23R (11737362_x_at) / Fold change /veh IL23R (11737362_x_at) / RFU TMEM51 (11727254_a_at) / Fold change /veh TMEM51 (11727254_a_at) / RFU PIWIL2 (11732686_x_at) / Fold change /veh PIWIL2 (11732686_x_at) / RFU ORM1 (11744905_x_at) / Fold change /veh ORM1 (11744905_x_at) / RFU CCDC152 (11743942_at) / Fold change /veh CCDC152 (11743942_at) / RFU ECM1 (11717891_a_at) / Fold change /veh ECM1 (11717891_a_at) / RFU IL23R (11748794_a_at) / Fold change /veh IL23R (11748794_a_at) / RFU TNFAIP8L3 (11732012_x_at) / Fold change /veh TNFAIP8L3 (11732012_x_at) / RFU MBOAT4 (11741988_at) / Fold change /veh MBOAT4 (11741988_at) / RFU 11764193_at / Fold change /veh 11764193_at / RFU TMEM53 (11763286_at) / Fold change /veh TMEM53 (11763286_at) / RFU MAGEB2 (11727129_at) / Fold change /veh MAGEB2 (11727129_at) / RFU TMEM200A (11744735_a_at) / Fold change /veh TMEM200A (11744735_a_at) / RFU CCDC152 (11751479_a_at) / Fold change /veh CCDC152 (11751479_a_at) / RFU FAM211A (11726209_a_at) / Fold change /veh FAM211A (11726209_a_at) / RFU RGS16 (11746705_a_at) / Fold change /veh RGS16 (11746705_a_at) / RFU VCAN (11755009_s_at) / Fold change /veh VCAN (11755009_s_at) / RFU RHOB (11743442_s_at) / Fold change /veh RHOB (11743442_s_at) / RFU RGS16 (11720943_a_at) / Fold change /veh RGS16 (11720943_a_at) / RFU RGS16 (11720944_at) / Fold change /veh RGS16 (11720944_at) / RFU, VPS4B / Fold change vs veh, VPS4B / RFU, CREB1 / Fold change vs veh, CREB1 / RFU, DNAJC13 / Fold change vs veh, DNAJC13 / RFU, GNAQ / Fold change vs veh, GNAQ / RFU, CDK5R1 / Fold change vs veh, CDK5R1 / RFU, ZRANB3 / Fold change vs veh, ZRANB3 / RFU, CUL4A / Fold change vs veh, CUL4A / RFU, CCNY / Fold change vs veh, CCNY / RFU, UFL1 / Fold change vs veh, UFL1 / RFU, COG3 / Fold change vs veh, COG3 / RFU, DIAPH2 / Fold change vs veh, DIAPH2 / RFU, SKA2 / Fold change vs veh, SKA2 / RFU, AFF3 / Fold change vs veh, AFF3 / RFU, LMF1 / Fold change vs veh, LMF1 / RFU, IPO11 / Fold change vs veh, IPO11 / RFU, DFFB / Fold change vs veh, DFFB / RFU, FOXP1 / Fold change vs veh, FOXP1 / RFU, CARD8 / Fold change vs veh, CARD8 / RFU, STRN3 / Fold change vs veh, STRN3 / RFU, ADK / Fold change vs veh, ADK / RFU, RASSF2 / Fold change vs veh, RASSF2 / RFU, WIPF1 / Fold change vs veh, WIPF1 / RFU, LARP1B / Fold change vs veh, LARP1B / RFU, RASA1 / Fold change vs veh, RASA1 / RFU, RB1 / Fold change vs veh, RB1 / RFU, PPFIA1 / Fold change vs veh, PPFIA1 / RFU, MAT2A / Fold change vs veh, MAT2A / RFU, CCT5 / Fold change vs veh, CCT5 / RFU, WDR92 / Fold change vs veh, WDR92 / RFU, CUX1 / Fold change vs veh, CUX1 / RFU, TTC7A / Fold change vs veh, TTC7A / RFU, TMEM135 / Fold change vs veh, TMEM135 / RFU, DEPTOR / Fold change vs veh, DEPTOR / RFU, CPM / Fold change vs veh, CPM / RFU, DNAJB6 / Fold change vs veh, DNAJB6 / RFU, CACNA2D3 / Fold change vs veh, CACNA2D3 / RFU, DTX4 / Fold change vs veh, DTX4 / RFU, TFCP2 / Fold change vs veh, TFCP2 / RFU, GMCL1 /// GMCL1P1 / Fold change vs veh, GMCL1 /// GMCL1P1 / RFU, AEBP2 / Fold change vs veh, AEBP2 / RFU, SNHG1 /// SNORD22 /// SNORD25 /// SNORD26 /// SNORD27 /// SNORD28 /// SNORD29 /// SNORD31 / Fold change vs veh, SNHG1 /// SNORD22 /// SNORD25 /// SNORD26 /// SNORD27 /// SNORD28 /// SNORD29 /// SNORD31 / Fold change (Aza/veh), C12orf56 (ProbeSet 11735607_a_at) / Fold change (ACY-1035/veh), C12orf56 (ProbeSet 11735607_a_at) / Fold change (Aza/veh), FGFR1OP (ProbeSet 11751329_s_at) / Fold change (ACY-1035/veh), FGFR1OP (ProbeSet 11751329_s_at) / Fold change (Aza/veh), VPS36 (ProbeSet 11739960_a_at) / Fold change (ACY-1035/veh), VPS36 (ProbeSet 11739960_a_at) / RFU SYPL1 (11715823_x_at) / Fold change /veh SYPL1 (11715823_x_at) / RFU IGFBP7 (11715501_s_at) / Fold change /veh IGFBP7 (11715501_s_at) / RFU REEP3 (11722064_at) / Fold change /veh REEP3 (11722064_at) / RFU IGLL1 (11728026_x_at) / Fold change /veh IGLL1 (11728026_x_at): dose or concentration left out as unconfirmed",
  "conditions": "ProbeSet 11724763_s_at; LIST D",
  "data": [
    {"molecule": "Nc1ccc(-c2cccs2)cc1NC(=O)c1ccc2c(c1)cc(C1CC1)n2CCN1CCOCC1", "note": "[ACY-1035]", "values": [
      {"measurement": "Fold change vs veh, DEPTOR", "result": 0.84}
    ]}
  ]
}
